From US12534496B2, “Polymorphic forms of Cyclo (-His-Pro) and methods of use to treat kidney disease” (NovMetaPharma Co., Ltd., priority 2018, dated 2026)
“Also recorded” adds a separate entry of the source.

Legend:
Assay type in all cases: physicochemical
[1] = 8-week stability assessment at 40 °C/75% RH (XRPD, appearance, chiral HPLC); details: for Chiral Purity: chiral HPLC
Protocol: XRPD analysis was carried out on a PANalytical X'pert pro, scanning the samples between 3 and 35° 2θ. The material was gently ground to release any agglomerates and loaded onto a multi-well plate with Kapton or Mylar polymer film to support the sample. The multi-well plate was then placed into the diffractometer and analyzed using Cu K radiation (α1λ=1.54060 Å; α2=1.54443 Å; β=1.39225 Å; α1: α2 ratio=0.5) running in transmission mode (step size 0.0130° 2θ) using 40 kV/40 mA generator settings.
13. Chiral HPLC Column: Daicel IC (5.0 um, 250*4.6 mm) Column Temperature: 30° C. Injection Volume: 5 μL Flow Rate: 1.0 mL/min Mobile Phase A: 0.01% DEA in n-Hexane Mobile Phase B: EtOH:MeOH=2:8 (v/v) Diluent: Acetonitrile PDA Range: 220 nm Gradient program: […]

[2] = Solution state chemical stability in water/acetone and EtOH/water/MtBE (HPLC purity); details: water/acetone and EtOH/H2O/MtBE, 50 °C for 20 h
Protocol: Solution state chemical stability of the compound was studied in different solvent systems at different temperatures (Table 4). The solution was held at 50° C. and 80° C., and purity of the solution was tracked. The compound was generally stable for at least 20 hours.

[3] = Variable temperature and humidity XRPD (VT-/VH-XRPD)
Protocol: VT-/VH-XRPD analysis was carried out on a Philips X'Pert ProMultipurpose diffractometer equipped with a temperature and humidity chamber. The samples were scanned between 4 and 35.99° 2θ using Cu K radiation (α1λ=1.54060 Å; α2=1.54443 Å; β=1.39225 Å; α1:α2 ratio=0.5) running in Bragg-Brentano geometry (step size 0.008° 2θ) using 40 kV/40 mA generator settings. Measurements were performed at each step of the humidity profile below:
Program: 40% RH/ambient temperature—initial scan
• 0% RH/ambient temperature—initial scan, 1-hour hold, scan • 0% RH/80° C.—initial scan, 20-minute hold, scan • 0% RH/80° C.—initial scan, 80-minute hold, scan 11. High Performance Liquid Chromatography-Ultraviolet Detection (HPLC-UV) Instrument: Dionex Ultimate 3000 Column: LC/168 X-Bridge Phenyl Column (150 mm×4.6 mm×3.5 μm) Column Temperature: 30° C. Autosampler Temperature: 5° C. UV wavelength: 220 nm Injection Volume: 5 μL Flow Rate: 1 ml/min Mobile Phase A: 10 mM Ammonium acetate Mobile Phase B: Acetonitrile Diluent: 0.1% TFA in water Gradient program: […]

[4] = GMP stability study of CHP anhydrate and CHP hydrate under accelerated conditions (total impurities); details: for Growth of total Impurities: 40 °C/75% RH
Protocol: CHP anhydrate (Pattern 1) and hydrate (Pattern 2) compounds were manufactured under GMP conditions. A stability study for the CHP anhydrate compound was conducted under ccelerated conditions (40±5° C./75±5% RH) for six months and room temperature conditions (25±5° C./60±5% RH) for 12 months. A further stability study for the CHP hydrate compound was conducted under accelerated conditions (40±5° C./75±5% RH) for 6 months (Table 18).

[5] = Solubility of CHP hydrate (Pattern 2) in water/acetone
[6] = Vacuum oven heating of Pattern 2 (XRPD)
Protocol: i. 80° C. Heating of Pattern 2 • Ca. 2.2 g of pattern 2 material (prepared as per Section 5.6.1) was placed inside a vacuum oven set to 50° C.; • After 1 hour, a sample was taken and analyzed by XRPD; • Vial was returned to the vacuum oven and the temperature increased to 60° C.; • After 30 minutes, a sample was taken and analyzed by XRPD; • Vial was returned to the vacuum oven and the temperature increased to 80° C.; • After 18 hours at 80° C., a sample was taken and analyzed by XRPD; ii. Fast Rotary Evaporation in Ethanol/DCM • 1 g of received CHP pattern 1 was weighed in to a round bottom flask and dissolved in 40 mL of ethanol; • Once the solid had dissolved, 2 mL of dichloromethane was pipetted into the flask; • The flask was then attached to a rotary evaporator and fast evaporated at ambient temperature under vacuum; • A pale beige solid was recovered an analyzed by XRPD. 7. pH Solubility Assessment

[7] = Dry stability at 35, 40, 50 and 65 °C (XRPD)
Protocol: Drying stability was carried out at 35° C., 40° C., 50° C., and 65° C. respectively.

With O=C1N[C@@H](Cc2cnc[nH]2)C(=O)N2CCC[C@@H]12 [Pattern 2, Pyrrolo [1,2-a]pyrazine-1,4-dione, hexahydro-3-(1H-imidazol-5-ylmethyl)-, hydrate (1:1), (3S, 8aS)-] the Appearance ([1]; 2-week) was “White”, the Appearance ([1]; 4-week) was “White” and the “XRPD form after storage” value ([1]; 4 weeks, listed as CHP pattern 2) was “no change in form”. The Appearance ([1]; 8-week) was “White”, the “XRPD form after storage” value ([1]; 8 weeks) was “no change in form” and the “XRPD form after storage” value ([1]; 8 weeks, listed as CHP pattern 2) was “no change in form”. The “XRPD form after storage” value ([1]; 8 weeks, listed as pattern 2 CHP) was “pattern 2 prevailed”, the Appearance ([1]; Initial) was “White” and the “Chiral Purity” value ([1]; 2-week) was >99.9%. The “Chiral Purity” value ([1]; 4-week) was 99.9%, the “Chiral Purity” value ([1]; Initial) was 99.9% and the “XRPD form after storage” value ([1]; two weeks (14 days), listed as CHP pattern 2) was “no change in form”. For the same compound, the “Chemical stability under both crystallization conditions” value [2] was “stable”, the “VT/VH-XRPD Identity” value ([3]; Run 1: 40% RH, ambient temperature) was “stable; also recorded: Pattern 2 was present” and the “VT/VH-XRPD Identity” value ([3]; Run 1: 40% RH, ambient temperature, listed as CHP Pattern 2) was “Pattern 2”. The “VT/VH-XRPD Identity” value ([3]; Run 2: 0% RH, ambient temperature, 1-hour hold) was “remains as Pattern 2; also recorded: Pattern 2 remained”, the “VT/VH-XRPD Identity” value ([3]; Run 2: 0% RH, ambient temperature, 1-hour hold, listed as CHP Pattern 2) was “Pattern 2” and the “VT/VH-XRPD Identity” value ([3]; Run 2: 0% RH, ambient temperature, 1-hour hold, listed as CHP pattern 2) was “Pattern 2 input material remained”. For the same compound, the “VT/VH-XRPD Identity” value ([3]; Run 3: 0% RH, 80 °C, 20-minute hold) was “converted Pattern 2 to Pattern 1; also recorded: pure Pattern 1”, the “VT/VH-XRPD Identity” value ([3]; Run 3: 0% RH, 80 °C, 20-minute hold, listed as CHP Pattern 2) was “Pattern 1” and the “VT/VH-XRPD Identity” value ([3]; Run 3: 0% RH, 80 °C, 20-minute hold, listed as CHP pattern 2) was “changed form which was assigned as pure pattern 1”. For the same compound, the “VT/VH-XRPD Identity” value ([3]; Run 4: 0% RH, 80 °C, 80-minute hold) was “pure Pattern 1 remained”, the “VT/VH-XRPD Identity” value ([3]; Run 4: 0% RH, 80 °C, 80-minute hold, listed as CHP Pattern 2) was “Pattern 1” and the “VT/VH-XRPD Identity” value ([3]; Run 4: 0% RH, 80 °C, 80-minute hold, listed as CHP pattern 2) was “Pure pattern 1 remained”. The “Growth of total Impurities” value ([4]; 0M) was 0%, the “Growth of total Impurities” value ([4]; 1M) was 0% and the “Growth of total Impurities” value ([4]; 3M, listed as CHP hydrate (pattern 2)) was 0.00%. The “Growth of total Impurities” value ([4]; 6M, listed as CHP hydrate (pattern 2)) was 0.05%, the “Quality changes during stability study” value ([4]; accelerated conditions for 6 months) was “no significant quality changes” and the solubility ([5]; water/acetone 0/10 (v/v), 50 °C, organic solvent or mixture) was 14 mg/mL. The solubility ([5]; water/acetone 0.5/9.5 (v/v), 50 °C, organic solvent or mixture) was 49 mg/mL, the solubility ([5]; water/acetone 1/9 (v/v), 5 °C, organic solvent or mixture) was 48 mg/mL and the solubility ([5]; water/acetone 1/9 (v/v), 50 °C, organic solvent or mixture) was 159 mg/mL. It also gave a solubility ([5]; water/acetone 2/8 (v/v), 5 °C, organic solvent or mixture) of 110 mg/mL, a solubility ([5]; water/acetone 4/6 (v/v), 5 °C, organic solvent or mixture) of 179 mg/mL and a solubility ([5]; water/acetone 6/4 (v/v), 5 °C, aqueous with cosolvent or surfactant or cyclodextrin) of 206 mg/mL. The solubility ([5]; water/acetone 8/2 (v/v), 5 °C, aqueous with cosolvent or surfactant or cyclodextrin) was > 200 mg/mL, the solubility ([5]; water/acetone 9/1 (v/v), 5 °C, aqueous with cosolvent or surfactant or cyclodextrin) was 215 mg/mL and the solubility ([5]; water/acetone, 5 °C, organic solvent or mixture, water/acetone 0/10 (v/v)) was 17 mg/mL. For the same compound, the solubility ([5]; water/acetone, 5 °C, organic solvent or mixture, water/acetone 0.5/9.5 (v/v)) was 19 mg/mL, the solubility ([5]; water/acetone, 50 °C, aqueous with cosolvent or surfactant or cyclodextrin, water/acetone 6/4 (v/v)) was > 200 mg/mL and the solubility ([5]; water/acetone, 50 °C, aqueous with cosolvent or surfactant or cyclodextrin, water/acetone 8/2 (v/v)) was > 200 mg/mL. For the same compound, the solubility ([5]; water/acetone, 50 °C, aqueous with cosolvent or surfactant or cyclodextrin, water/acetone 9/1 (v/v)) was > 200 mg/mL, the solubility ([5]; water/acetone, 50 °C, organic solvent or mixture, water/acetone 2/8 (v/v)) was > 200 mg/mL and the solubility ([5]; water/acetone, 50 °C, organic solvent or mixture, water/acetone 4/6 (v/v)) was > 200 mg/mL. The “XRPD form after heating” value ([6]; oven 80 °C, additional 18 hours) was “mixture of Pattern 1 and 2”, the “XRPD form after heating” value ([6]; vacuum oven 50 °C, 1 hour) was “predominately Pattern 2 with some Pattern 1 peaks” and the “XRPD form after heating” value ([6]; vacuum oven, further 30 minutes (1.5 hour in total)) was “predominantly Pattern 2 with some Pattern 1 peaks”. The “Drying stability (form)” value ([7]; drying at 35-65 °C, up to 4 days) was “stable up to 40 °C for at least 4 days”, the XRPD ([7]; drying at 35 °C, 1 d) was “Pattern 2” and the XRPD ([7]; drying at 35 °C, 4 d) was “Pattern 2”. The XRPD ([7]; drying at 40 °C, 1 d) was “Pattern 2”, the XRPD ([7]; drying at 40 °C, 2 d) was “Pattern 2” and the XRPD ([7]; drying at 40 °C, 3 d) was “Pattern 2”. For the same compound, the XRPD ([7]; drying at 40 °C, 4 d) was “Pattern 2”, the XRPD ([7]; drying at 50 °C, 1 d) was “Pattern 2” and the XRPD ([7]; drying at 50 °C, 2 d) was “Pattern 2”. The XRPD ([7]; drying at 50 °C, 4 d) was “Pattern 1”, the XRPD ([7]; drying at 65 °C, 1 d) was “Pattern 2” and the XRPD ([7]; drying at 65 °C, 2 d) was “Pattern 1”. For the same compound, the “Drying stability (form)” value ([7]; lab oven under −0.09 MPa) was “stable at below 40 °C”.
